The record followed here is publication PMC5808360, “Neutral Porphyrin Derivative Exerts Anticancer Activity by Targeting Cellular Topoisomerase I (Top1) and Promotes Apoptotic Cell Death without Stabilizing Top1-DNA Cleavage Complexes” (Journal of Medicinal Chemistry, 2017).

Peptide text beside a SMILES is read from it. * marks the point of attachment. Cbz = O=C(OCc1ccccc1)*

The test system of assay [1] is relaxed pBS (SK+) plasmid DNA. The assay can be described thus: Topoisomerase I unwinding assay (DNA intercalation). The conditions noted are these: m-AMSA and etoposide 50 and 300 μM; compound 8 50, 100, 300 μM. As for the experimental part: Therefore, compound 8 interacts in reversible manner with Top1 to inhibit the plasmid relaxation activity (Figure 1).
The competence of the drug to intercalate into plasmid DNA was determined by Top1 unwinding assay.[36],[44] Assays were performed with 50 fmol of pBluscript (SK+) DNA in the presence or absence of compound 8, m-AMSA, and etoposide at indicated concentrations. Excess of DNA topoisomerase I was reacted with supercoiled plasmid DNA to generate relaxed DNA for the unwinding assays. The relaxed DNA was purified by proteolytic digestion with proteinase K at 37 °C, followed by phenol/chloroform extraction and ethanol precipitation. The unwinding assays were carried out at 37 °C for 15 min with independent compounds and were analyzed by 1% agarose gel as described above.

The target in assay [2] is T1, cellular Top1 in MCF7 cells (Homo sapiens, UniProt P11387).
T1 construct: endogenous in cells; host or cells: MCF7 cells
T1 sequence (P11387 2-765 limits assumed): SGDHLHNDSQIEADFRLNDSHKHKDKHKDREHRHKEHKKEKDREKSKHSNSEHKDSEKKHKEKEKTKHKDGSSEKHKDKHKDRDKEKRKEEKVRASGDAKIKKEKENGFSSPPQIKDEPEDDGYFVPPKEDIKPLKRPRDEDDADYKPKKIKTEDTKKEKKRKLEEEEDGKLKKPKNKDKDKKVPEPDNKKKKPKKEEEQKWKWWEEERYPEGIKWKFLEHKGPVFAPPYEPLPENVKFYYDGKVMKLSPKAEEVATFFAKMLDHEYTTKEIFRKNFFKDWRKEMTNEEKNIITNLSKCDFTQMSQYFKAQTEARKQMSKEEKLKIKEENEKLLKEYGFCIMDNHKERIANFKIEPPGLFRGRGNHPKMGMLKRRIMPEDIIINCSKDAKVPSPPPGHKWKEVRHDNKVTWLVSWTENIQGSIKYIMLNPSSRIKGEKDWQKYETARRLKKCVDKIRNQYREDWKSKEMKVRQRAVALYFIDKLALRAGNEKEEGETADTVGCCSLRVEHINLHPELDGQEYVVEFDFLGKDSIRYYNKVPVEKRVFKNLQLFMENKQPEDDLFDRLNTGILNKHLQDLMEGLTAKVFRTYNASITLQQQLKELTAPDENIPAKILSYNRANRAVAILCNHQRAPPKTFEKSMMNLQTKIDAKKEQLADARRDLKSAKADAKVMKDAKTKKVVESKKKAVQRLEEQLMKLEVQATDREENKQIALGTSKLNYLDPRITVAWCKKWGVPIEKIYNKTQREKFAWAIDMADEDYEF
Kind of assay: Western blot of Top1 in whole cell extracts of treated MCF7 cells. The class given is cell-based. The conditions noted are these: MG132 100 nM preincubated 4 h, then compound 8 10 μM 12 h. As for the experimental part:
Because compound 8 binds with free Top1 (Figure 3) and inhibits Top1cc formation in live cells (Figure 2E), we examined the impact of compound 8 on endogenous Top1. Cellular lysates were prepared from MCF7 cells treated with compound 8 for indicated times and were analyzed by Western blotting. […] Because proteasome has been implicated for Top1 degradation,[7],[9],[45] we used proteasome specific inhibitor (MG132) to investigate Top1 proteolysis in compound 8 treated cells.
Preparation of whole cell extracts from MCF7 cells and immunoblotting were carried out as described.[6],[40],[41] Immunoreactivity was detected using ECL chemiluminescence reaction (Amersham) under ChemiDoc MP system (Bio-Rad, USA).
On the technique in general: A western blot detects proteins with antibodies after separation by electrophoresis.

Assay [3] addresses T2, EGFP-human Top1 in MCF7 cells (Homo sapiens, UniProt P11387).
T2 construct: expressed in transfected cells; host or cells: MCF7 cells, transient transfection (Lipofectamine 2000)
T2 sequence (P11387 1-765): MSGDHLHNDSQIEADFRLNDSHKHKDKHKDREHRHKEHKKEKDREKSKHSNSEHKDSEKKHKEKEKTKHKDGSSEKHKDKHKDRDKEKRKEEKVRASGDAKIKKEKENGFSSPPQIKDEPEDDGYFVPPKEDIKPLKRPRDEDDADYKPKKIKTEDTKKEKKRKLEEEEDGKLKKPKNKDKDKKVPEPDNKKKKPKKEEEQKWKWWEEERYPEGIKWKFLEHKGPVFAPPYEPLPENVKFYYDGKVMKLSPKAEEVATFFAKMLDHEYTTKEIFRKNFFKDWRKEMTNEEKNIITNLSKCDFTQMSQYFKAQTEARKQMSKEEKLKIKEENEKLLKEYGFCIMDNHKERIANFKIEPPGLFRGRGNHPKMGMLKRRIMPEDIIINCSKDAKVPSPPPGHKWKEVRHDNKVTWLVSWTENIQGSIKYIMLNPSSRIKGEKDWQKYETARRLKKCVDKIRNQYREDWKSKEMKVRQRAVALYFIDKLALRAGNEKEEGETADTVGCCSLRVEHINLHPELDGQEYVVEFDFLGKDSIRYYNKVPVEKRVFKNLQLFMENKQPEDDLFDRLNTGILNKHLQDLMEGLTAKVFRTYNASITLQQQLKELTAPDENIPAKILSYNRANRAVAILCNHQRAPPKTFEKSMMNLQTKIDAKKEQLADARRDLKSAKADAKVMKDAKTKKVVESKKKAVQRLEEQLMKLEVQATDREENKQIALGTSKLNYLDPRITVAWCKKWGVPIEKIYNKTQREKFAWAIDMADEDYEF
Kind of assay: FRAP of EGFP-Top1 in live MCF7 cells. The assay is classed as cell-based. The conditions noted are these: 5 μM, 10 min. As for the experimental part: To obtain direct evidence for compound 8 mediated inhibition of Top1cc formation in live human carcinoma cells, we used MCF7 cells and transiently expressed EGFP-Top1. Live cells expressing ectopic Top1 were analyzed under laser confocal microscopy equipped with fluorescence recovery after photobleaching (FRAP) technology.[40]−[42]
Photobleaching experiments were performed as described formerly[40]−[42] using Andor Spining disk inverted confocal laser-scanning microscope equipped with a 60×/1.42 NA oil-immersion objective (Olympus) and with a CO2-controlled on-stage heated environmental chamber set to 37 °C. FRAP analyses were carried out with living MCF7 cells ectopically expressing EGFP-human Top1 grown on chamber cover glass (Genetix, India) and drug treated as indicated. For FRAP analysis, a subnuclear spot was bleached for 30 ms by solid-state laser line (488 nm for EGFP) adapted to the fluorescent protein of interest and FRAP curves were generated individually normalized to the prebleach signal as described previously.[42]

Assay [4] deals with MCF7 cells. The assay can be described thus: Alkaline comet assay. The assay is classed as cell-based, human. The conditions noted are these: NAC 10 mM pretreatment 30 min before compound 8. The text has this:
Therefore, we directly measured compound 8 induced DNA strand breaks at single cellular level by using alkaline comet assays (Figure 5B,C) and simultaneously measured the apoptotic cell death by immunofluorescence staining of the apoptosis marker phosphatidylserine with annexin V-FITC antibody (Figure 5D,E). Compound 8 treated MCF7 cells accumulate ∼8-fold increase in DNA strand breaks (Figure 5B and Figure 5C) compared to untreated cells, resulting in ∼7-fold elevation in compound 8 induced annexin V(+) apoptotic cells (Figure 5D and Figure 5E). […] Therefore, we conclude that compound 8 triggers reactive oxygen species induced DNA degradation and apoptotic cell death without stabilizing Top1-DNA cleavage complexes.
To detect the levels of drug-induced DNA breaks, after treatment MCF7 cells were subjected to alkaline comet assays according to the manufacturer’s instructions (Trevigen, USA) and comet length was measured and was scored for at least 50 cells. Distributions of comet lengths were compared using the Student’s t-test as described previously.[13],[40],[50]

The test system of assay [5] is MCF7 cells. Kind of assay: Measurement of intracellular ROS (H2DCFDA). The class given is cell-based, human. The conditions noted are these: NAC 10 mM pretreatment 30 min before compound 8 10 μM. An excerpt: Next, to investigate the mechanistic link between compound 8 induced cellular Top1 inhibition (Figure 1), degradation (Figure 4A and Figure 4B), and activation of apoptosis (Figure 4C), we tested reactive oxygen species (ROS) formation and accumulation of oxidative DNA fragmentation[15],[17],[46] in compound 8 treated MCF7 cells. […] We observed a marked elevation (∼3- to 5-fold) in ROS accumulation (Figure 5A) under similar conditions that activate PARP1 cleavage (Figure 4C). Nonetheless, MCF7 cells pretreated with N-acetylcysteine (NAC), a specific inhibitor of ROS, reduced compound 8 induced ROS generation by ∼3-fold (Figure 5A).
Intracellular ROS was detected in drug-treated MCF7 cells with or without pretreatment of N-acetyl-L-cysteine (NAC) for indicated time as described.[13],[46] Briefly, cells were washed and resuspended in 500 μL of 1× PBS and were loaded with 2 μg/mL of H2DCFDA (Molecular Probes) for 30 min, and green fluorescence of 2,7-dichlorofluorescein was measured at 515 nm by spectrofluorometer.

For the molecule `COc1cc(NS(C)(=O)=O)ccc1Nc1c2ccccc2nc2ccccc12` [m-AMSA], in assay [1], the “Negative supercoiling of relaxed plasmid DNA (intercalation)” value is recorded as “incites a net negative supercoiling of the relaxed plasmid DNA”.
Take `CC(C)C[C@@H](C=O)NC(=O)[C@H](CC(C)C)NC(=O)[C@H](CC(C)C)NC(=O)OCc1ccccc1` [MG132, reference compound] (Cbz-Leu-Leu-Leu-aldehyde): the “Effect on 8-induced degradation of Top1” value in assay [2] is listed as “abrogated”.
For the molecule `CC[C@@]1(O)C(=O)OCc2c1cc1n(c2=O)Cc2cc3ccccc3nc2-1` [CPT, Camptothecin, reference compound], in assay [3], the “Increase of Top1 immobile population (FRAP)” value is listed as 40–50%.
As to `CC(=O)N[C@@H](CS)C(=O)O` [NAC, N-acetyl-L-cysteine], in the assay with MCF7 cells [4], the “Decrease in compound 8 induced DNA breaks” value is approximately 4 fold. Moreover, in the assay on MCF7 cells [5], the “Reduction of compound 8 induced ROS generation” value is listed as approximately 3 fold.
With `COc1cc([C@@H]2c3cc4c(cc3[C@@H](O[C@@H]3O[C@@H]5CO[C@@H](C)O[C@H]5[C@H](O)[C@H]3O)[C@H]3COC(=O)[C@H]23)OCO4)cc(OC)c1O` [etoposide], in assay [1], the “Negative supercoiling of relaxed plasmid DNA (intercalation)” value is reported as “failed to show such effect”.
